For experiment [1], the system named is Nakaseomyces glabratus. As to the kind of experiment: Antifungal activity against Candida glabrata clinical isolate after 24 to 48 hr by CLSI broth microdilution method. The class given is functional. For orientation: In broth dilution the organism is exposed to a series of concentrations in liquid medium.
In experiment [2] the test system is Nakaseomyces glabratus. Kind of experiment: microbe, parasite or virus in culture. Format: functional. The conditions noted are these: ATCC 36583.
Description: Antifungal activity against Candida glabrata ATCC 36583 after 24 to 48 hr by CLSI broth microdilution method
Experiment [3] has as its system Candida albicans. Kind of experiment: microbe, parasite or virus in culture. The class given is functional. The conditions noted are these: NRRL Y-27077.
Description: Antifungal activity against Candida albicans NRRL Y-27077 after 24 to 48 hr by CLSI broth microdilution method
In another experiment the test system is Enterococcus faecalis. Kind of experiment: microbe, parasite or virus in culture. The class given is functional. The conditions noted are these: ATCC 29212.
Another experiment has as its system Klebsiella pneumoniae. As to the kind of experiment: microbe, parasite or virus in culture. The conditions noted are these: ATCC 700603. Format: functional.
In a further experiment the test system is Salmonella typhimurium. As to the kind of experiment: microbe, parasite or virus in culture. The class given is functional, Salmonella enterica subsp. enterica serovar Typhimurium. The conditions noted are these: Salmonella enterica, NRLL B-4420.
A further experiment concerns Proteus vulgaris. As to the kind of experiment: microbe, parasite or virus in culture. Format: functional. The conditions noted are these: NRLL B-123.
The subject of the next experiment is Pseudomonas aeruginosa. As to the kind of experiment: microbe, parasite or virus in culture. The conditions noted are these: ATCC 27853. The class given is functional.
Another experiment relates to Escherichia coli. As to the kind of experiment: microbe, parasite or virus in culture. The class given is functional. The conditions noted are these: ATCC 35218.
The subject of another experiment is Candida parapsilosis. Kind of experiment: microbe, parasite or virus in culture. Format: functional. The conditions noted are these: Lodderomyces parapsilosis, NRRL Y-12969.
Another experiment concerns [Candida] zeylanoides. Kind of experiment: microbe, parasite or virus in culture. Format: functional. The conditions noted are these: Dujonia zeylanoides, NRRL Y-1774.
The subject of another experiment is Pichia kudriavzevii. Kind of experiment: microbe, parasite or virus in culture. Format: functional. The conditions noted are these: NRRL Y-7179.
Another experiment has as its system Candida tropicalis. As to the kind of experiment: microbe, parasite or virus in culture. The class given is functional. The conditions noted are these: NRRL Y-12968.
The next experiment concerns Cyberlindnera jadinii. Kind of experiment: Antifungal activity against Cyberlindnera jadinii NRRL Y-900 after 24 to 48 hr by CLSI broth microdilution method. The class given is functional. The conditions noted are these: Williopsis jadinii.
The subject of experiment [4] is Candida albicans. Kind of experiment: Antifungal activity against Candida albicans clinical isolate after 24 to 48 hr by CLSI broth microdilution method. The class given is functional.
Another experiment relates to Staphylococcus aureus. Kind of experiment: microbe, parasite or virus in culture. The class given is functional. The conditions noted are these: ATCC 25923.

Converted amounts (≈) assume the structure as drawn.

Description for Candida parapsilosis: Antifungal activity against Candida parapsilosis NRRL Y-12969 after 24 to 48 hr by CLSI broth microdilution method
Description for Candida tropicalis: Antifungal activity against Candida tropicalis NRRL Y-12968 after 24 to 48 hr by CLSI broth microdilution method
Description for Enterococcus faecalis: Antibacterial activity against Enterococcus faecalis ATCC 29212 after 24 to 48 hr by CLSI broth microdilution method
Description for Escherichia coli: Antibacterial activity against Escherichia coli ATCC 35218 after 24 to 48 hr by CLSI broth microdilution method
Description for Klebsiella pneumoniae: Antibacterial activity against Klebsiella pneumoniae ATCC 700603 after 24 to 48 hr by CLSI broth microdilution method
Description for Pichia kudriavzevii: Antifungal activity against Pichia kudriavzevii NRRL Y-7179 after 24 to 48 hr by CLSI broth microdilution method
Description for Proteus vulgaris: Antibacterial activity against Proteus vulgaris NRLL B-123 after 24 to 48 hr by CLSI broth microdilution method
Description for Pseudomonas aeruginosa: Antibacterial activity against Pseudomonas aeruginosa ATCC 27853 after 24 to 48 hr by CLSI broth microdilution method
Description for Salmonella typhimurium: Antibacterial activity against Salmonella enterica subsp. enterica serovar Typhimurium NRRL B-4420 after 24 to 48 hr by CLSI broth microdilution method
Description for Staphylococcus aureus: Antibacterial activity against Staphylococcus aureus ATCC 25923 after 24 to 48 hr by CLSI broth microdilution method
Description for [Candida] zeylanoides: Antifungal activity against Candida zeylanoides NRRL Y-1774 after 24 to 48 hr by CLSI broth microdilution method

Consider `COc1cc(Cc2cnc(N)nc2N)cc(OC)c1OC.O=C(O)/C=C\C(=O)O` [TRIMETHOPRIM MALEIC ACID SALT], for which the MIC against Nakaseomyces glabratus [1], in the experiment with Nakaseomyces glabratus [2], against Candida albicans [3], against Enterococcus faecalis, with Klebsiella pneumoniae and in the experiment with Salmonella typhimurium was 50 µg/mL each time. Also, the MIC with Proteus vulgaris, against Pseudomonas aeruginosa and against Escherichia coli was 50 µg/mL in each case.
On to `CC(=O)N1CCN(c2ccc(OCC3COC(Cn4ccnc4)(c4ccc(Cl)cc4Cl)O3)cc2)CC1` (configuration not stated) [KETOCONAZOLE], for which the MIC against Candida parapsilosis came to 1.56 µg/mL (≈ 2.94 µM); in [Candida] zeylanoides it was 25 µg/mL (≈ 47 µM); against Pichia kudriavzevii, 25 µg/mL (≈ 47 µM); in the experiment with Candida tropicalis it was 12.5 µg/mL (≈ 23.5 µM); against Cyberlindnera jadinii, 12.5 µg/mL (≈ 23.5 µM); against Nakaseomyces glabratus [1], 3.12 µg/mL (≈ 5.88 µM). Moreover, the MIC in the experiment with Nakaseomyces glabratus [2] turned out to be 25 µg/mL (≈ 47 µM); against Candida albicans [4] it was 3.12 µg/mL (≈ 5.88 µM); against Candida albicans [3], 12.5 µg/mL (≈ 23.5 µM).
Turning to `O=C(N[C@H](CO)[C@H](O)c1ccc([N+](=O)[O-])cc1)C(Cl)Cl` [CHLORAMPHENICOL], the MIC with Enterococcus faecalis is 12.5 µg/mL (≈ 38.7 µM); in the experiment on Staphylococcus aureus, 50 µg/mL (≈ 155 µM); against Klebsiella pneumoniae, 12.5 µg/mL (≈ 38.7 µM); against Salmonella typhimurium it was 12.5 µg/mL (≈ 38.7 µM); against Proteus vulgaris, 50 µg/mL (≈ 155 µM); against Pseudomonas aeruginosa, 50 µg/mL (≈ 155 µM).
For `COc1cc(Cc2cnc(N)nc2N)cc(OC)c1OC.O.O.O=C(O)C(=O)O` [TRIMETHOPRIM OXALIC ACID SALT DIHYDRATE], the MIC in the experiment with Nakaseomyces glabratus [1] amounted to 25 µg/mL; with Nakaseomyces glabratus [2], 50 µg/mL; against Candida albicans [3], 50 µg/mL; with Enterococcus faecalis, 50 µg/mL; with Klebsiella pneumoniae, 50 µg/mL; in the experiment on Salmonella typhimurium, 50 µg/mL. For the same compound, the MIC against Proteus vulgaris, against Pseudomonas aeruginosa and against Escherichia coli was 50 µg/mL each time.
Take `COc1cc(Cc2cnc(N)nc2N)cc(OC)c1OC` [TRIMETHOPRIM]: the MIC is 25 µg/mL (≈ 86.1 µM) against Nakaseomyces glabratus [1]; 50 µg/mL (≈ 172 µM) against Nakaseomyces glabratus [2]; 50 µg/mL (≈ 172 µM) against Candida albicans [3]; 50 µg/mL (≈ 172 µM) against Enterococcus faecalis; 50 µg/mL (≈ 172 µM) in the experiment with Klebsiella pneumoniae; 50 µg/mL (≈ 172 µM) in the experiment on Salmonella typhimurium. Also, the MIC in the experiment with Proteus vulgaris, against Pseudomonas aeruginosa and against Escherichia coli was 50 µg/mL (≈ 172 µM) in each case.
